Results on 26 compounds are retold here after patent publication US8957063B2, “Amine and ether compounds which modulate the CB2 receptor” (priority 2008, dated 2015).

Molecules are shown by their SMILES.

In the first experiment the target is T1, human CB2R (Homo sapiens, UniProt P34972).
T1 construct: host or cells: CHO cells
T1 sequence (P34972 whole entry): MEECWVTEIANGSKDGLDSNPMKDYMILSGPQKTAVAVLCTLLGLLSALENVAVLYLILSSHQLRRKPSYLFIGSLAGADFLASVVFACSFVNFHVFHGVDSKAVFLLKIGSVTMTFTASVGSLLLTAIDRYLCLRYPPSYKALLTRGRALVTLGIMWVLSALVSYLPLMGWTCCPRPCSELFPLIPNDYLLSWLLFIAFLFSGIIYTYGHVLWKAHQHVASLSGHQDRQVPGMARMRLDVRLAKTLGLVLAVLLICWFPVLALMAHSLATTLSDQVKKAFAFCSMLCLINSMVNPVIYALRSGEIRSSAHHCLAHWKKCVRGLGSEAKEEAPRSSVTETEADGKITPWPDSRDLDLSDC
Nature of the experiment: CB2R mediated modulation of cAMP synthesis. The experiment is classed as cell-based.
Conditions: not given
As for the experimental part: B. CB2R Mediated Modulation of cAMP Synthesis:
Compounds of the invention were evaluated for their CB2 agonist or inverse agonistic activity in accordance with the following experimental method.
CHO cells expressing human CB2R (Euroscreen) were plated at a density of 5000 cells per well in 384 well plates and incubated overnight at 37° C. After removing the media, the cells were treated with test compounds diluted in stimulation buffer containing 1 mM IBMX, 0.25% BSA and 10 uM Forskolin. The assay was incubated for 30 minutes at 37° C. Cells were lysed and the cAMP concentration was measured using DiscoverX-XS cAMP kit, following the manufacturer's protocol. In this setting, agonists will decrease forskolin induced production of cAMP while inverse agonists will further increase forskolin induced production of cAMP. EC50 of agonists were calculated as follows. The maximal amount of cAMP produced by forskolin compared to the level of cAMP inhibited by 1 uM CP55940 is defined as 100%. The EC50 value of each test compound was determined as the concentration at which 50% of the forskolin-stimulated cAMP synthesis was inhibited. Data was analyzed using a four-parameter logistic model. (Model 205 of XLfit 4.0).
Consider `CC(C)(Nc1ccc(C(F)(F)F)cn1)C(=O)Nc1cc(C(C)(C)C)on1` [Example 47, N-(5-tert-Butyl-isoxazol-3-yl)-2-methyl-2-(5-trifluoromethyl-pyridin-2-ylamino)-propionamide], for which a half-maximal response (EC50) required 0.02 µM.

In turn, `CC(C)(NCC1CCOCC1)C(=O)Nc1cc(C(C)(C)C)on1` [Example 38, N-(5-tert-Butyl-isoxazol-3-yl)-2-methyl-2-[(tetrahydro-pyran-4-ylmethyl)-amino]-propionamide] came in with an EC50 of 0.125 µM.

In turn, `CC(C)(Nc1ccc(C(F)(F)F)cn1)C(=O)Nc1cc(C(C)(C)C)no1` [Example 46, N-(3-tert-Butyl-isoxazol-5-yl)-2-methyl-2-(5-trifluoromethyl-pyridin-2-ylamino)-propionamide] registered an EC50 of 0.00078 µM.

Compound `CC1CCCN(C(C)(C)C(=O)Nc2cc(C(C)(C)C)on2)C1` (centres unmarked) [Example 19, N-(5-tert-Butyl-isoxazol-3-yl)-2-(3-methyl-piperidin-1-yl)-isobutyramide] came in with an EC50 of 0.00034 µM.

Regarding `CC(C)(NC1CCOCC1)C(=O)Nc1cc(C(C)(C)C)on1` [Example 40, N-(5-tert-Butyl-isoxazol-3-yl)-2-methyl-2-(tetrahydro-pyran-4-ylamino)-propionamide], a half-maximal effect (EC50) was put at 0.035 µM.

The compound `CC(C)(C)c1cc(NC(=O)C(C)(C)N2CCC(F)(F)CC2)no1` [Example 28, N-(5-tert-Butyl-isoxazol-3-yl)-2-(4,4-difluoro-piperidin-1-yl)-isobutyramide] had an EC50 of 0.024 µM.

Compound `CC(C)NC(C)(C)C(=O)Nc1cc(C(C)(C)C)on1` [Example 10, N-(5-tert-Butyl-isoxazol-3-yl)-2-isopropylamino-2-methyl-propionamide] gave an EC50 of 0.1 µM.

In the case of `CC(C)(C)c1cc(NC(=O)C(C)(C)n2ccc3cc(Cl)ccc32)no1` [Example 35, N-(5-tert-Butyl-isoxazol-3-yl)-2-(5-chloro-indol-1-yl)-isobutyramide], the EC50 worked out at 0.00022 µM.

Turning to `CC(C)(OC1CCOCC1)C(=O)Nc1nc(-c2ccccc2)n[nH]1` [Example 7, 2-Methyl-N-(5-phenyl-2H-1,2,4-triazol-3-yl)-2-(tetrahydro-pyran-4-yloxy)-propionamide], the midpoint of the response, the EC50, lay at 0.235 µM.

`CCC(C)NC(C)(C)C(=O)Nc1cc(C(C)(C)C)on1` (centres unmarked) [Example 11, 2-sec-Butylamino-N-(5-tert-butyl-isoxazol-3-yl)-2-methyl-propionamide]: it took 0.177 µM to reach a half-maximal effect (EC50).

For `CCCCNC(C)(C)C(=O)Nc1cc(C(C)(C)C)on1` [Example 17, 2-Butylamino-N-(5-tert-butyl-isoxazol-3-yl)-2-methyl-propionamide], the EC50 came to 0.096 µM.

Take `CC(C)(NCC1CCOCC1)C(=O)Nc1cc(C(C)(C)C)no1` [Example 37]: the response was half-maximal at 0.014 µM (EC50).

Compound `CC(C)(OCC1CCOCC1)C(=O)Nc1cc(C(C)(C)C)on1` [Example 3, N-(5-tert-Butyl-isoxazol-3-yl)-2-methyl-2-(tetrahydro-pyran-4-ylmethoxy)-propionamide] displayed an EC50 of 0.05 µM.

As for `CC(C)(C(=O)Nc1ccc(C(F)(F)F)cn1)N1CCCCC1` [Example 32, 2-Piperidin-1-yl-N-(5-trifluoromethyl-pyridin-2-yl)-isobutyramide], the EC50 worked out at 0.127 µM.

As to `CC(C)(C)c1cc(NC(=O)C(C)(C)N2CCOCC2)no1` [Example 13, N-(5-tert-Butyl-isoxazol-3-yl)-2-morpholin-4-yl-isobutyramide], the EC50 worked out at 0.045 µM.

In turn, `COC1CCN(C(C)(C)C(=O)Nc2cc(C(C)(C)C)on2)CC1` [Example 25, N-(5-tert-Butyl-isoxazol-3-yl)-2-(4-methoxy-piperidin-1-yl)-isobutyramide] displayed an EC50 of 0.00021 µM.

The compound `CC1CCCN1C(C)(C)C(=O)Nc1cc(C(C)(C)C)on1` (centres unmarked) [Example 20, N-(5-tert-Butyl-isoxazol-3-yl)-2-(2-methyl-pyrrolidin-1-yl)-isobutyramide] returned an EC50 of 0.024 µM.

As to `CC(C)(OCC1CCOCC1)C(=O)Nc1nc(-c2ccccc2)n[nH]1` [Example 6, 2-Methyl-N-(5-phenyl-2H-1,2,4-triazol-3-yl)-2-(tetrahydro-pyran-4-ylmethoxy)-propionamide], the EC50 amounted to 0.051 µM.

Compound `CC(C)(NCC1CCOCC1)C(=O)Nc1nc(-c2ccccc2)n[nH]1` [Example 41, 2-Methyl-N-(5-phenyl-2H-1,2,4-triazol-3-yl)-2-[(tetrahydro-pyran-4-ylmethyl)-amino]-propionamide] gave an EC50 of 0.098 µM.

Consider `CC(C)N(C)C(C)(C)C(=O)Nc1cc(C(C)(C)C)on1` [Example 12, N-(5-tert-Butyl-isoxazol-3-yl)-2-(isopropyl-methyl-amino)-2-methyl-propionamide], for which the response was half-maximal at 0.0084 µM (EC50).

`CN(C(C)(C)C(=O)Nc1cc(C(C)(C)C)on1)S(=O)(=O)c1ccc(F)cc1` [Example 49, N-(5-tert-Butyl-isoxazol-3-yl)-2-[(4-fluoro-benzenesulfonyl)-methyl-amino]-2-methyl-propionamide] yielded an EC50 of 0.00013 µM.

For the compound `CC(C)(C)c1cc(NC(=O)C(C)(C)N2CCC3(CCCCC3)C2)on1` [Example 36, 2-(2-Aza-spiro[4.5]dec-2-yl)-N-(3-tert-butyl-isoxazol-5-yl)-isobutyramide], it took 0.00045 µM to reach a half-maximal effect (EC50).

With `CC(C)(Nc1ccc(C(F)(F)F)cc1)C(=O)Nc1cc(C(C)(C)C)no1` [Example 43, N-(3-tert-Butyl-isoxazol-5-yl)-2-methyl-2-(4-trifluoromethyl-phenylamino)-propionamide], the EC50 was determined as 0.0011 µM.

In the case of `CC1CCN(C(C)(C)C(=O)Nc2cc(C(C)(C)C)on2)CC1` [Example 21, N-(5-tert-Butyl-isoxazol-3-yl)-2-(4-methyl-piperidin-1-yl)-isobutyramide], the EC50 turned out to be 0.0026 µM.

Turning to `CC(C)(Oc1ccc(C(F)(F)F)cn1)C(=O)Nc1cc(C(C)(C)C)no1` [Example 8, N-(3-tert-Butyl-isoxazol-5-yl)-2-methyl-2-(5-trifluoromethyl-pyridin-2-yloxy)-propionamide], the EC50 turned out to be 0.0001 µM.

The same experiment, now with this note: CHO cells expressing human CB2R; concentration at which 50% of the forskolin-stimulated cAMP synthesis was inhibited; 100% defined by 1 uM CP55940; read-out: CB2 EC50.
With `CC(C)(NC1CCCCC1)C(=O)Nc1ccc(C(F)(F)F)cn1` [Example 29, 2-Cyclohexylamino-2-methyl-N-(5-trifluoromethyl-pyridin-2-yl)-propionamide], the EC50 was 0.469 µM.
